Measurements taken from US9908848B2, “Amide derivatives of lactam based N-acylethanolamine acid amidase (NAAA) inhibitors” (The Regents of the University of California, priority 2013, dated 2018).

target: T1, human NAAA (Homo sapiens, UniProt Q02083); assay: Fluorogenic h-NAAA assay; assay type: biochemical; settings: @ 2.5 μM; read-out: h-NAAA Fluorogenic assay % inhib.
T1 construct: made in house; host or cells: HEK293 cells, stably transfected; soluble fraction after freeze/thaw
T1 sequence (Q02083 29-359): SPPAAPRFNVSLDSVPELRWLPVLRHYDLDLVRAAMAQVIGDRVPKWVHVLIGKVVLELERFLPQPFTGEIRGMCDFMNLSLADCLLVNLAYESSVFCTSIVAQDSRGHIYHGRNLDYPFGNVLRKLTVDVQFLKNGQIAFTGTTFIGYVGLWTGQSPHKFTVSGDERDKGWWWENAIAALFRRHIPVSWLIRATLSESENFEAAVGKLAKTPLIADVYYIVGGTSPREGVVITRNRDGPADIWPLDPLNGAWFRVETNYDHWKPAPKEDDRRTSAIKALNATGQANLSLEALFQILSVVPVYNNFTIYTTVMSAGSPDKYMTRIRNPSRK
Method: Hek293 cells stably transfected with the human NAAA coding sequence cloned from a human spleen cDNA library were used as enzyme source. Recombinant HEK-hNAAA pellets were resuspended in homogenizing buffer, and sonicated. Samples were centrifuged at 800×g for 15 min at 4° C. and the supernatants were ultracentrifuged at 12,000×g for 30 min at 4° C. The pellets were resuspended in PBS pH 7.4 on ice and subjected to a freeze/thaw cycle at −80° C. (two freeze/thaw cycles at −80° C. for Examples 34-37). The suspension was finally centrifuged at 105,000×g for 1 h at 4° C. Protein concentration was measured and samples stored at −80° C. until use.
The assay was run in Optiplate 96-wells black plates, in a total reaction volume of 200 μL. NAAA protein preparation (4.0 μg for Examples except 34-37, which were 20.0 μg) was pre-incubated for 10 min with various concentrations of test compounds or vehicle control (5% DMSO) in 100 mM citrate/phosphate buffer (pH 4.5) containing 3.0 mM DTT, 0.1% Triton X-100, 0.05% BSA, 150 mM NaCl. N-(4-methyl-2-oxo-chromen-7-yl)-hexadecanamide was used as a substrate (5.0 μM) and the reaction carried over for 30 min at 37° C. The samples were then read in a Perkin Elmer Envision plate reader using an excitation wavelength of 360 nm and emission 460 nm. IC50 values were calculated by non-linear regression analysis of log [concentration]/inhibition curves using GraphPad Prism 5 (GraphPad Software Inc., CA—USA) applying a standard slope curve fitting.

`CCCCc1ccc(C(=O)N[C@H]2CNC2=O)cc1` [Example 33, 4-Butyl-N-[(3S)-2-oxoazetidin-3-yl]-benzamide] gave an inhibition at 2.5 µM of 16%.

same assay, conditions: @ 50 μM; read-out: h-NAAA Fluorogenic assay % inhib.

Compared with `C[C@@H]1NC(=O)[C@H]1NC(=O)CCc1ccc(-c2ccccc2)cc1` [Example 29, N-[(2S,3S)-2-methyl-4-oxo-azetidin-3-yl]-3-(4-phenylphenyl)-propanamide], `O=C(CCc1ccccc1)N[C@H]1CNC1=O` [Example 19, 3-Phenyl-N-[(3S)-2-oxoazetidin-3-yl]-propanamide] is lower in inhibition at 50 µM: 60% for the first, 15% for the second.

same assay, conditions: @100 μM

In the case of `O=C(CCc1ccc(-c2ccccc2)cc1)N[C@H]1CNC1=O` [Example 18, 3-(4-Phenylphenyl)-N-[(3S)-2-oxoazetidin-3-yl]-propanamide], the “h-NAAA Fluorogenic assay (n.a.)” value is reported as “n.a. (n.a. = <10% inhib.@100 μM)”.
`O=C(CCCCc1ccccc1)N[C@@H]1CNC1=O` [Example 26, 5-Phenyl-N-[(3R)-2-oxoazetidin-3-yl]-pentanamide] was tested, and the “h-NAAA Fluorogenic assay (n.a.)” value was “n.a. (n.a. = <10% inhib.@100 μM)”.
`O=C(CCc1ccccc1)N[C@@H]1CNC1=O` [Example 20, 3-Phenyl-N-[(3R)-2-oxoazetidin-3-yl]-propanamide] was tested, and the “h-NAAA Fluorogenic assay (n.a.)” value was “n.a. (n.a. = <10% inhib.@100 μM)”.

same assay, conditions: recombinant HEK-hNAAA preparation

Going from `O=C(CCCCCc1ccccc1)N[C@H]1CNC1=O` [Example 31, 6-Phenyl-N-[(3S)-2-oxoazetidin-3-yl]-hexanamide] to `O=C(CCCCc1ccccc1)N[C@H]1CNC1=O` [Example 25, 5-Phenyl-N-[(3S)-2-oxoazetidin-3-yl]-pentanamide], the IC50 rises from 13.4 µM to 33.9 µM (2.5-fold).

Compared with `CCCCCCCCCCC(=O)N[C@H]1CNC1=O` [Example 24, N-[(3S)-2-Oxoazetidin-3-yl]-undecanamide], `CCCCCCCCC(=O)N[C@@H]1CNC1=O` [Example 4, N-[(3R)-2-Oxoazetidin-3-yl]-nonanamide] is 930-fold higher in IC50: 0.043 µM for the first, 40 µM for the second. The first is the more potent here.

Compared with `O=C(CCCc1ccccc1)N[C@H]1CNC1=O` [Example 32, 4-Phenyl-N-[(3S)-2-oxoazetidin-3-yl]-butanamide], `CCCc1ccc(CC(=O)N[C@H]2CNC2=O)cc1` [Example 35, N-[(3S)-2-oxoazetidin-3-yl]-2-(4-propylphenyl)acetamide] is 7.1-fold lower in IC50: 110 µM for the first, 15.6 µM for the second.

Compared with `CCCCCCCC(C)C(=O)N[C@H]1CNC1=O` (mixture of isomers) [Example 36, (2R)-2-methyl-N-[(3S)-2-oxoazetidin-3-yl]nonanamide and (2S)-2-methyl-N-[(3S)-2-oxoazetidin-3-yl]nonanamide], `CCCCCCCC(=O)N[C@H]1CNC1=O` [Example 22, N-[(3S)-2-Oxoazetidin-3-yl]-octanamide] is 4.2-fold higher in IC50: 0.22 µM for the first, 0.93 µM for the second. The first is the more potent here.

Going from `CCCCCCCCC(=O)N[C@@H]1C(=O)N[C@H]1C` [Example 28, N-[(2S,3S)-2-methyl-4-oxo-azetidin-3-yl]-nonanamide] to `CCCCCCC(=O)N[C@H]1CNC1=O` [Example 21, N-[(3S)-2-Oxoazetidin-3-yl]-heptanamide], the IC50 rises from 0.38 µM to 7.83 µM (21-fold). The first is the more potent here.

Compared with `CCCCCCCC(C)(C)C(=O)N[C@H]1CNC1=O` [Example 37, 2,2-dimethyl-N-[(3S)-2-oxoazetidin-3-yl]nonanamide], `CCCC[C@H]1CC[C@H](C(=O)N[C@H]2CNC2=O)CC1` [Example 34, (1r,4R)-4-butyl-N—((S)-2-oxoazetidin-3-yl)cyclohexanecarboxamide] is 5.3-fold higher in IC50: 0.758 µM for the first, 4.02 µM for the second. The first is the more potent here.
